Data reported in patent US7795294B2, “Tetrahydro-2H-indazole pyrazole cannabinoid modulators” (Janssen Pharmaceutica N.V., priority 2006, dated 2010).

Experiments:
[1] = molecular target: T1, human CB2 receptor (Homo sapiens, UniProt P34972); assay: Binding assay for CB2 agonists or inverse agonists, [3H]-CP-55,940 displacement on membranes of transfected SK-N-MC cells; details: for inhibition at 0.2 µM: read-out: Cannabinoid CB2 Receptor Binding percent inhibition
T1 construct: expressed in transfected cells; host or cells: SK-N-MC cells, stably transfected with pcDNA3 CB-2 (human); semi-purified membrane pellet
T1 sequence (P34972 whole entry): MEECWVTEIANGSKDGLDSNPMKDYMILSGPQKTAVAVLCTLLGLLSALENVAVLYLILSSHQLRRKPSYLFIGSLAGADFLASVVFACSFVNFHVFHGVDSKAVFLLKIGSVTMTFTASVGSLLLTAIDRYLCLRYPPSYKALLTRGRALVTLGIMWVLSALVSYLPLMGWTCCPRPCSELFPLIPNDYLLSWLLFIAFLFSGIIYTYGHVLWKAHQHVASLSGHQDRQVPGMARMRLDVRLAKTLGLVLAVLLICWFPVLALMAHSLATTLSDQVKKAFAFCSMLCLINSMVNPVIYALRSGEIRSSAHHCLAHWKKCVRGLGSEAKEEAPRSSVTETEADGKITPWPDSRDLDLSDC
Method: (§1) The human CB1 and CB2 receptors were stably expressed in SK-N-MC cells transfected with pcDNA3 CB-1 (human) or pcDNA3 CB-2 (human). The cells were grown in T-180 cell culture flasks under standard cell culture conditions at 37° C. in a 5% CO2 atmosphere. The cells were harvested by trysinization and homogenized in a homogenization buffer (10 mM Tris, 0.2 mM MgCl2, 5 mM KCl, with protease inhibitors aprotinin, leupeptin, pepstatin A and bacitracin) and centrifuged (2000 g). The supernatant was then centrifuged in 2M sucrose (31,300 g) to produce a semi-purified membrane pellet. The pellet was resuspended in homogenization and stored at −80° C.
(§2) On the day of the assay, the pellet was thawed on ice and diluted in assay buffer (50 mM Tris-HCl, 5 mM MgCl2, 2.5 mM EDTA, 0.5 mg/mL fatty acid free bovine serum albumin, pH 7.5). […] The plate was covered and incubated for 90 minutes at 30° C. The contents were then aspirated onto a Packard Unifilter GF/C filter bottom plate prewet with 0.5% polyethyleneimine. The wells of the polypropylene plate were rinsed and aspirated seven times with a 0.9% saline-0.5% Tween 20 solution. The Unifilter plate was dried, a scintillation cocktail was added to each well and the counts representing binding were quantitated in a TopCount scintillation counter.
(§3) For compounds tested, an IC50 binding value was obtained from percent inhibition studies in which various test concentrations were used. The binding value was calculated by linear regression. An average value is shown for those compounds where two or more IC50 values were obtained.
(§4) An average value is shown for those compounds where two or more percent inhibition values were obtained.

[2] = molecular target: T2, human CB1 receptor (Homo sapiens, UniProt P21554); assay: Binding assay for CB1 agonists or inverse agonists, [3H]-CP-55,940 displacement on membranes of transfected SK-N-MC cells; details: for inhibition at 0.2 µM: read-out: Cannabinoid CB1 Receptor Binding percent inhibition
T2 construct: expressed in transfected cells; host or cells: SK-N-MC cells, stably transfected with pcDNA3 CB-1 (human); semi-purified membrane pellet
T2 sequence (P21554 whole entry): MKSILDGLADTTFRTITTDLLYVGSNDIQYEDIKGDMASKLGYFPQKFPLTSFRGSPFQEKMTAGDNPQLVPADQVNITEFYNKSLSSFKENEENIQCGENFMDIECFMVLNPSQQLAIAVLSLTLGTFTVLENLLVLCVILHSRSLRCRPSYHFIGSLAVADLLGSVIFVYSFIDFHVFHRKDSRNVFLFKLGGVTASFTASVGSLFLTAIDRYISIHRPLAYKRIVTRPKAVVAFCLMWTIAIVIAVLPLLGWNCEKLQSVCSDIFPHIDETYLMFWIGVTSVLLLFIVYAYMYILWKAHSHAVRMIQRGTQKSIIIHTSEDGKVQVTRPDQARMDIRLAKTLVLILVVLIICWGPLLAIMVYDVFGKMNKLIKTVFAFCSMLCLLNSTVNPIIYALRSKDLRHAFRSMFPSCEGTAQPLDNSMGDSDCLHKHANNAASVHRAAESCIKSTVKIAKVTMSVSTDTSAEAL
Method: as §1, §2, §3, §4

SMILES | inhibition at 0.2 µM [1] [%] | inhibition at 0.2 µM [2] [%] | IC50 [1] [nM] | IC50 [2] [nM]
COc1ccc(-c2c3c(nn2-c2ccc(Cl)cc2Cl)C(C(=O)NN2CCCCCC2)CCC3)cc1 (stereo not drawn) [Cpd 22, 2-(2,4-dichloro-phenyl)-3-(4-methoxy-phenyl)-4,5,6,7-tetrahydro-2H-indazole-7-carboxylic acid azepan-1-ylamide] | 22 | 59 |  | 
COc1ccc(-c2c3c(nn2-c2ccc(Cl)cc2Cl)[C@H](C(=O)N[C@H](C)c2ccccc2)CCC3)cc1 [Cpd 24, (7R)-2-(2,4-dichloro-phenyl)-3-(4-methoxy-phenyl)-4,5,6,7-tetrahydro-2H-indazole-7-carboxylic acid [(1R)-1-phenyl-ethyl]-amide] | 28 | 58 |  | 
CC(NC(=O)C1CCCc2c1nn(Cc1ccccc1)c2-c1cccc(F)c1)C1CCCCC1 (stereo not drawn) [Cpd 9, 2-benzyl-3-(3-fluoro-phenyl)-4,5,6,7-tetrahydro-2H-indazole-7-carboxylic acid (1-cyclohexyl-ethyl)-amide] |  |  | 2130 | 3500
C[C@@H](NC(=O)[C@@H]1CCCc2c1nn(-c1ccc(Cl)cc1Cl)c2-c1ccc(Br)s1)C1CCCCC1 [Cpd 55, (7R)-3-(5-bromo-thiophen-2-yl)-2-(2,4-dichloro-phenyl)-4,5,6,7-tetrahydro-2H-indazole-7-carboxylic acid [(1R)-1-cyclohexyl-ethyl]-amide] | 27 |  |  | 3
CC12CCC(C1)C(C)(C)[C@H]2NC(=O)C1CCCc2c1nn(Cc1ccccc1)c2-c1cccc(F)c1 (stereo partly drawn) [Cpd 19, 2-benzyl-3-(3-fluoro-phenyl)-4,5,6,7-tetrahydro-2H-indazole-7-carboxylic acid [(2S)-1,3,3-trimethyl-bicyclo[2.2.1]hept-2-yl]-amide] |  |  | 290 | 400
Cc1ccc(-c2c3c(nn2Cc2ccccc2)C(C(=O)NC2C4(C)CCC(C4)C2(C)C)CCC3)cc1 (stereo not drawn) [Cpd 6, 2-benzyl-3-p-tolyl-4,5,6,7-tetrahydro-2H-indazole-7-carboxylic acid (1,3,3-trimethyl-bicyclo[2.2.1]hept-2-yl)-amide] |  |  | 840 | 400
COc1ccc(-c2c3c(nn2-c2ccc(Cl)cc2Cl)C(C(=O)NN(C)c2ccccc2)CCC3)cc1 (stereo not drawn) [Cpd 26, 2-(2,4-dichloro-phenyl)-3-(4-methoxy-phenyl)-4,5,6,7-tetrahydro-2H-indazole-7-carboxylic acid N′-methyl-N′-phenyl-hydrazide] | 32 |  |  | 6
C[C@@H](NC(=O)[C@@H]1CCCc2c1nn(-c1ccc(Cl)cc1Cl)c2-c1ccc(Br)cc1)c1ccccc1 [Cpd 46, (7R)-3-(4-bromo-phenyl)-2-(2,4-dichloro-phenyl)-4,5,6,7-tetrahydro-2H-indazole-7-carboxylic acid [(1R)-1-phenyl-ethyl]-amide] | 28 |  |  | 0.8
O=C(NN1CCCCCC1)C1CCCc2c1nn(-c1ccc(Cl)cc1Cl)c2-c1ccc(Cl)cc1 (stereo not drawn) [Cpd 34, 3-(4-chloro-phenyl)-2-(2,4-dichloro-phenyl)-4,5,6,7-tetrahydro-2H-indazole-7-carboxylic acid azepan-1-ylamide] | 0 |  |  | 35
CC12CCC(C1)C(C)(C)C2NC(=O)C1CCCc2c1nn(Cc1ccccc1)c2-c1ccc(Cl)cc1 (stereo not drawn) [Cpd 4, 2-benzyl-3-(4-chloro-phenyl)-4,5,6,7-tetrahydro-2H-indazole-7-carboxylic acid (1,3,3-trimethyl-bicyclo[2.2.1]hept-2-yl)-amide] |  |  | 3900 | 5520
CC(NC(=O)C1CCCc2c1nn(Cc1ccccc1)c2-c1cccc(F)c1)C12CCC3CC(CC3C1)C2 (stereo not drawn) [Cpd 20, 2-benzyl-3-(3-fluoro-phenyl)-4,5,6,7-tetrahydro-2H-indazole-7-carboxylic acid [1-(octahydro-2,5-methano-inden-5-yl)-ethyl]-amide] |  |  | 70 | 130
C[C@@H](NC(=O)[C@H]1CCCc2c1nn(-c1ccc(Cl)cc1Cl)c2-c1ccc(Cl)s1)c1ccccc1 [Cpd 48, (7S)-3-(5-chloro-thiophen-2-yl)-2-(2,4-dichloro-phenyl)-4,5,6,7-tetrahydro-2H-indazole-7-carboxylic acid [(1R)-1-phenyl-ethyl]-amide] | 0 | 38 |  | 
C[C@@H](NC(=O)[C@@H]1CCCc2c1nn(-c1ccc(Cl)cc1Cl)c2-c1ccc(F)cc1)c1ccccc1 [Cpd 38, (7R)-2-(2,4-dichloro-phenyl)-3-(4-fluoro-phenyl)-4,5,6,7-tetrahydro-2H-indazole-7-carboxylic acid [(1R)-1-phenyl-ethyl]-amide] | 14 |  |  | 2
C[C@@H](NC(=O)[C@@H]1CCCc2c1nn(-c1ccc(Cl)cc1Cl)c2-c1ccc(Cl)cc1)c1ccccc1 [Cpd 40, (7R)-3-(4-chloro-phenyl)-2-(2,4-dichloro-phenyl)-4,5,6,7-tetrahydro-2H-indazole-7-carboxylic acid [(1R)-1-phenyl-ethyl]-amide] | 11 |  |  | 0.6
COc1ccc(-c2c3c(nn2-c2ccc(Cl)cc2Cl)C(C(=O)NN2CCCCC2)CCC3)cc1 (stereo not drawn) [Cpd 21, 2-(2,4-dichloro-phenyl)-3-(4-methoxy-phenyl)-4,5,6,7-tetrahydro-2H-indazole-7-carboxylic acid piperidin-1-ylamide] | 18 | 42 |  | 
